Measurements from patent US20150307846A1, “GROWTH FACTOR COCKTAIL TO ENHANCE OSTEOGENIC DIFFERENTIATION OF MESENCHYMAL CELLS” (University of Pennsylvania, priority 2012, published 2015).

How the values were obtained:
Assay type in all cases: cell-based
[1] = tested on: human periosteum derived cells (hPDCs); test: ALP/Alizarin Red staining of calcium deposits (mineralization) on hPDCs; settings: hPDCs after OM and TGFβ1 one week, then 4 days
Description: FIG. 9: Gene expression of early (A) and late (B) bone markers in hPDCs treated with GM, OM or GM/OM supplemented with a growth factor mix (GF) containing TNFα, EGF, TGFβ1 and IL6. C) ALP staining of hPDCs that were stimulated with OM and TGFβ1 for one week followed by GM with one factor in the absence or presence of ascorbic acid for 2 days. D) ALP/Alizarin Red staining to stain calcium deposits on hPDCs pre-treated with OM and TGFβ1 for one week followed by GM with six minus one factors for four days in the absence or presence of ascorbic acid.
To overcome the inhibitory effect of OM on later stages of osteoblastogenesis, we considered to explore a two stage protocol wherein hPDCs were treated with OM and TGFβ1 to stimulate proliferation and ALP activity. After six days, medium was changed to growth medium supplemented with six factors (ascorbic acid, TNFα, IL6, EGF, Ca, Pi) minus one factor for 4 days. At this stage, ascorbic acid was included as a factor, because it promoted ALP activity (FIG. 9C) and mineralization (FIG. 9D) in vitro. […] Gene expression levels of RUNX2 were decreased when ascorbic acid was omitted from the mix. […] Furthermore, EGF, calcium and phosphate were required for DLX5 transcription, but at the used concentrations, calcium and phosphate decreased iBSP mRNA levels (FIG. 8C).

[2] = tested on: human periosteum derived cells (hPDCs); test: Alkaline phosphatase activity / ALP staining in hPDCs
Protocol: (§1) FIG. 8: A) Identification of factors that drive proliferation of hPDCs. A cell pool of hPDCs was either treated with growth medium (GM, negative control), medium containing eight factors (all factors) or medium containing eight minus one factor for 8 days. The factors are osteogenic medium (OM), calcium ions (Ca, 6 mM), phosphate ions (Pi, 4 mM), TNFα (50 ng/ml), IL6 (10 ng/ml), Wnt3A (50 ng/ml), EGF (20 ng/ml), and TGFβ1 (10 ng/ml). Proliferation is expressed as population doublings and was measured after 8 days after stimulation (n=3, error bars: standard deviation). The horizontal line is a reference line set on the proliferation in the “all factor” condition. B) Identification of factors that drive alkaline phosphatase activity in hPDCs. The percentage alkaline positive cells is used as a metric for early osteoblast differentiation.
FIG. 9: Gene expression of early (A) and late (B) bone markers in hPDCs treated with GM, OM or GM/OM supplemented with a growth factor mix (GF) containing TNFα, EGF, TGFβ1 and IL6. […]
(§2) Cell culture. […] For in vitro osteogenic differentiation assays, passage 6 to passage 9 hPDCs (pool of four different donors) were seeded at 3000 cells/cm^2 in either 96-well plates to assess proliferation and alkaline phosphatase activity or in the middle eight wells of a 24-well plate for quantifying gene expression. […]

[3] = tested on: human periosteum derived cells (hPDCs); test: Gene expression of bone markers in hPDCs in 2D culture (Taqman PCR); settings: for iBSP mRNA levels: at the used concentrations (Ca 6 mM, Pi 4 mM)
Protocol: Same experimental design as in A. C) Identification of factors involved in osteoblast maturation. hPDCs were treated with OM and TGFβ1 for 6 days, followed by stimulation with GM (negative control), GM containing six factors or GM supplement with six minus one factor for 4 days. The factors are ascorbic acid (Asc. Ac., 57 μM), TNFα (50 ng/ml), IL6 (10 ng/ml), EGF (20 ng/ml), Ca (6 mM) and Pi (4 mM). To evaluate osteoblast maturation, gene expression of RUNX2, OSX, DLX5, iBSP, OC and RANKL is measured with Taqman PCR. […] D) Gene expression of osteoblast markers in hPDCs treated with OM and TGFβ1 for one week followed by GM supplemented with a growth factor mix (GF) containing ascorbic acid (57 μM), EGF (20 ng/ml), IL6 (10 ng/ml), Ca (6 mM), and Pi (4 mM) (“GF+C6P4”) or the same mix with reduced Ca (3 mM) and Pi (2 mM) ions (“GF+C3P2”). Gene expression is expressed as fold increase as compared to the GM condition. (n=3, error bars: standard deviations, *p≦00.05, Mann-Whitney U test). E) Gene expression of osteoblast markers in hPDCs treated with OM/TGFβ1 for 10 days, or with GM supplemented with ascorbic acid, EGF, IL6, C3P2 for 10 days (“EGF/IL6/C3P2”), or sequential stimulation with OM/TGFβ1 for 6 days followed by GM supplemented with ascorbic acid, EGF, IL6, C3P2 (“EGF/IL6/C3P2”) for 4 days. Gene expression is expressed as fold increase as compared to hPDCs cultured in OM/TGFβ1 (n=3, error bars: standard deviations, *p≦00.05, Mann-Whitney U test).
Cell culture. Periosteum was harvested from four patients (male/female/age) and periosteal cells were enzymatically released from the matrix. Tissue culture plastic adherent cells were expanded in DMEM medium supplemented with 10% fetal bovine serum as described previously (6). For in vitro osteogenic differentiation assays, passage 6 to passage 9 hPDCs (pool of four different donors) were seeded at 3000 cells/cm^2 in either 96-well plates to assess proliferation and alkaline phosphatase activity or in the middle eight wells of a 24-well plate for quantifying gene expression.
Medium was changed every other day. Supplemental factors were TNFα, IL6 (R&D Systems, USA), TGFβ1 (Stem Cell Research, USA), Ascorbic Acid (Sigma,USA), Ca and Pi (SigmaUSA). Calcium and phosphate ion working solutions were prepared as described in (7).
Quantitative PCR. Complementary DNA (cDNA) was obtained by reverse transcription of […] of total RNA with Oligo (dT)20 as primer (Superscript Ill; Invitrogen, Merelbeke, Belgium). Sybr Green PCR was performed in 10 pl reaction in a Rotor-Gene-Q (Qiagen) with following protocol: 95° C. for 3 seconds, 60° C. for 20 seconds. Primer sequences for specific Sybr green PCR was performed with human specific primers (Table 5). Taqman PCR primer/probe combinations (Applied Biosystems) were used in the in vitro osteogenesis assays.
Statistical Analysis. Experiments were carried out in triplicate. The error bars represent the standard error of the mean when cells from multiple donors are used. Standard deviations are shown when experiments are performed with a hPDC cell pool (n=3). Statistical comparison between experimental conditions was performed with a Mann-Whitney U test. A p-value ≦0.05 was considered as being statistically significant.

[4] = tested on: human periosteum derived cells (hPDCs); test: Proliferation of hPDCs in 2D culture (population doublings); settings: 8 days, eight factors minus one
Protocol: as §1
as §2, with “culture. Periosteum was harvested from four patients (male/female/age) and periosteal cells were enzymatically released from the matrix.” for “culture.”

[5] = two stage protocol, six factors minus one, 4 days

Row | Compound | RANKL expression in medium devoid of the factor [3, 5] | iBSP mRNA levels [3] | role in DLX5 transcription [3, 5] | also measured
1 | O=C1O[C@H]([C@@H](O)CO)C(O)=C1O [ascorbic acid, reference compound] | lower levels | – | – | mineralization [1]: promoted; ALP activity (staining) ([2]; hPDCs after OM and TGFβ1 one week, then GM with factor 2 days): promoted; RUNX2 gene expression when the factor was omitted from the mix [3, 5]: decreased
2 | [Ca] [calcium] | – | decreased | required | –
3 | IL6: cytokine ligand, 10 ng/ml | lower levels | – | – | –
4 | TGFβ1: growth factor ligand, 10 ng/ml | – | – | – | effect on proliferation (leave-one-out) [4]: strong inducers; effect on ALP activity (leave-one-out) ([2]; hPDCs, 8 days, eight factors minus one): strong inducers
5 | TNFα | lower levels | – | – | effect on osteogenic differentiation [3, 5]: strong inhibitor; expression levels of OSX, iBSP and OC when the factor was removed from the cocktail [3, 5]: enhanced
6 | phosphate | – | decreased | required | –
